Among the data in US20130217702A1 (Richter Gedeon Nyrt., priority 2010, published 2013) are Ki and IC50 values, retold here.

The structures appear in SMILES notation. Where two headings read alike, the source gives them in different places.

Experiment [1] has as its target T1, human recombinant bradykinin B1 receptor (Homo sapiens, UniProt P46663).
T1 construct: host or cells: CHO cells, clone hB1-A5
T1 sequence (P46663 1-353): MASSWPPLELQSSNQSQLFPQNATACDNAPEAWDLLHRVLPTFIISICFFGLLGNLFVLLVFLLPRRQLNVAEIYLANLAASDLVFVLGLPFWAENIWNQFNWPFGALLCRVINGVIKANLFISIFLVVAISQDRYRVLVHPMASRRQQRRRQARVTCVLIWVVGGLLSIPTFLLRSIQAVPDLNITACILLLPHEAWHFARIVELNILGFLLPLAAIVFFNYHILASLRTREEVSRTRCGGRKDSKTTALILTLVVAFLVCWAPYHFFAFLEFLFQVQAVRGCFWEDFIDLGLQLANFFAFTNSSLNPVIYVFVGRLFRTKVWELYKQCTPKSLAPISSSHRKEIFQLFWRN
The experiment is described as follows: Human recombinant bradykinin B1 receptor competitive radioligand binding. The method, boiled down:
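Competition radioligand binding on CHO-expressed hB1 membranes, using [3,4-prolyl-3,4-^3H(N)]-[Des-Arg^10] Kallidin as tracer, 15 min at 25° C. Excess Lys-des-Arg^9-Bradykinin (10 μM) set nonspecific binding. Sigmoidal fits of at least seven concentrations gave IC50, converted to Ki via Cheng-Prusoff; KD from Scatchard.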

Experiment [2] addresses T2, recombinant human B1 receptors (Homo sapiens, UniProt P46663).
T2 construct: host or cells: CHO (CHO-B1)
T2 sequence (P46663 1-353): T1 sequence (P46663 1-353)
The experiment is described as follows: Functional assay: antagonist potency by cytosolic calcium measurement (plate reader fluorimeter) in CHO-B1 cells, agonist LysDABK. It counts as cell-based. The method, boiled down:
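IC50 is the concentration giving half-maximal inhibition of the LysDABK (EC80) calcium response, fitted from at least three experiments. CHO cells stably expressing human B1 were dye-loaded, exposed to compound for 20-25 min, then read by fluo-4 fluorescence (ΔF/F) at 37 °C.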

The mark [3] stands for this setting: hB1 expressed in CHO cells, [3H]-[Des-Arg10] Kallidin radioligand, read-out: B1 binding.
[4] abbreviates: CHO-B1 cells, inhibition of LysDABK (EC80)-evoked [Ca2+]i elevation, read-out: B1 func.

Take `COc1cc(C(=O)NC2(C(=O)NCc3ccc(-n4c(-c5noc(C)n5)c(F)c5cc(F)ccc54)cc3)CC2)on1` [Example 198, 3-Methoxy-isoxazole-5-carboxylic acid (1-{4-[3,5-difluoro-2-(5-methyl-[1,2,4]oxadiazol-3-yl)-indol-1-yl]-benzylcarbamoyl}-cyclopropyl)-amide]: the Ki in experiment [1] (setting [3]) was less than 20 nM. Moreover, the IC50 in experiment [2] (setting [4]) is less than 20 nM.

`CC(NC(=O)C1(NC(=O)C(F)(F)F)CC1)c1ccc(-n2c(C(=O)N3CCCC3)c(Cl)c3ccccc32)cc1` (stereo not drawn) [Example 33, 1-(2,2,2-Trifluoro-acetylamino)-cyclopropanecarboxylic acid (1-{4-[3-chloro-2-(pyrrolidine-1-carbonyl)-indol-1-yl]-phenyl}-ethyl)-amide]: in experiment [1] (setting [3]), the Ki was in the range of 20 to 100 nM. Further, the IC50 in experiment [2] (setting [4]) lay in the range of 100 to 500 nM.

On to `COc1ccc2c(c1)cc(-c1nnc(C)o1)n2-c1ccc(CNC(=O)C2(NC(=O)c3cc(OC)no3)CC2)cc1` [Example 126, 3-Methoxy-isoxazole-5-carboxylic acid (1-{4-[5-methoxy-2-(5-methyl-[1,3,4]oxadiazol-2-yl)-indol-1-yl]-benzylcarbamoyl}-cyclopropyl)-amide], for which, in experiment [1] (setting [3]), the Ki was less than 20 nM. In experiment [2] (setting [4]), the IC50 lay in the range of 20 to 100 nM.

For `COc1cc(C(=O)NC2(C(=O)NCc3ccc(-n4c(-c5nnn(C)n5)c(Cl)c5cc(F)ccc54)cc3)CC2)on1` [Example 13, 3-Methoxy-isoxazole-5-carboxylic acid (1-{4-[3-chloro-5-fluoro-2-(2-methyl-2H-tetrazol-5-yl)-indol-1-yl]-benzylcarbamoyl}-cyclopropyl)-amide], in experiment [1] (setting [3]), the Ki is less than 20 nM. The IC50 in experiment [2] (setting [4]) is less than 20 nM.

Consider `Cc1noc(-c2cc3ccccc3n2-c2ccc(CNC(=O)C3(NC(=O)c4cncc(C(F)(F)F)c4)CC3)cc2)n1` [Example 83, N-(1-{4-[2-(3-Methyl-[1,2,4]oxadiazol-5-yl)-indol-1-yl]-benzylcarbamoyl}-cyclopropyl)-5-trifluoromethyl-nicotinamide], for which the Ki in experiment [1] (setting [3]) was less than 20 nM. In addition, the IC50 in experiment [2] (setting [4]) is less than 20 nM.

Turning to `COc1cc(C(=O)NC2(C(=O)NCc3ccc(-n4c(-c5nnn(C)n5)c(Cl)c5ccccc54)cc3F)CC2)on1` [Example 15, 3-Methoxy-isoxazole-5-carboxylic acid (1-{4-[3-chloro-2-(2-methyl-2H-tetrazol-5-yl)-indol-1-yl]-2-fluorobenzylcarbamoyl}-cyclopropyl)-amide], in experiment [1] (setting [3]), the Ki was less than 20 nM. For the same molecule, the IC50 in experiment [2] (setting [4]) was less than 20 nM.

Regarding `CCCc1cc(C(=O)NC2(C(=O)NCc3ccc(-n4c(-c5noc(C)n5)c(Cl)c5ccccc54)cc3)CC2)on1` [Example 42, 3-Propyl-isoxazole-5-carboxylic acid (1-{4-[3-chloro-2-(5-methyl-[1,2,4]oxadiazol-3-yl)-indol-1-yl]-benzylcarbamoyl}-cyclopropyl)-amide], the Ki in experiment [1] (setting [3]) is less than 20 nM. Moreover, in experiment [2] (setting [4]), the IC50 is less than 20 nM.

Consider `Cc1nc(-c2c(Cl)c3ccccc3n2-c2ccc(CNC(=O)C3(NC(=O)c4cn[nH]c4)CC3)cc2)no1` [Example 141, 1H-Pyrazole-4-carboxylic acid (1-{4-[3-chloro-2-(5-methyl-[1,2,4]oxadiazol-3-yl)-indol-1-yl]-benzylcarbamoyl}-cyclopropyl)-amide], for which, in experiment [1] (setting [3]), the Ki was less than 20 nM. Further, in experiment [2] (setting [4]), the IC50 was less than 20 nM.

For the molecule `COc1cc(C(=O)NC2(C(=O)NCc3ccc(-n4c(-c5nc(C)no5)c(Cl)c5ccccc54)cc3)CC2)on1` [Example 193, 3-Methoxy-isoxazole-5-carboxylic acid (1-{4-[3-chloro-2-(3-methyl-[1,2,4]oxadiazol-5-yl)-indol-1-yl]-benzylcarbamoyl}-cyclopropyl)-amide], the Ki in experiment [1] (setting [3]) is less than 20 nM. Also, the IC50 in experiment [2] (setting [4]) is less than 20 nM.

Regarding `COc1ccc2c(c1)cc(-c1nnc(C)o1)n2-c1ccc(CNC(=O)C2(NC(=O)c3cncc(C(F)(F)F)c3)CC2)cc1` [Example 125, N-(1-{4-[5-Methoxy-2-(5-methyl-[1,3,4]oxadiazol-2-yl)-indol-1-yl]-benzylcarbamoyl}-cyclopropyl)-5-trifluoromethyl-nicotinamide], the Ki in experiment [1] (setting [3]) was less than 20 nM. The IC50 in experiment [2] (setting [4]) was less than 20 nM.

Regarding `Cc1nc(-c2cc3ccccc3n2-c2ccc(CNC(=O)C3(NC(=O)CC(F)(F)F)CC3)cc2)no1` [Example 81, 1-(3,3,3-Trifluoro-propionylamino)-cyclopropanecarboxylic acid 4-[2-(5-methyl-[1,2,4]oxadiazol-3-yl)-indol-1-yl]-benzylamide], the Ki in experiment [1] (setting [3]) was less than 20 nM. Further, the IC50 in experiment [2] (setting [4]) was less than 20 nM.

As for `CN1CCN(C(=O)C2CCN(S(=O)(=O)c3ccc(NCC(c4ccccc4)c4ccccc4)c(C(=O)N4CCOCC4)c3)CC2)CC1` [NVP-SAA164, 4-{2-[(2,2-diphenyl-ethyl)-amino]-5-{4-[4-[(4-methyl-1-piperazinyl)-carbonyl]-1-piperidinyl]-sulfonyl}-benzoyl}-morpholine, reference compound], in experiment [1] (reference compounds, binding test, measured by the applicant, read-out: Ki), the Ki is 8 nM. For the same molecule, in experiment [2] (reference compounds, functional test, measured by the applicant, read-out: IC50), the IC50 came out at 33 nM.

For `COc1cc(C(=O)NC2(C(=O)NCc3ccc(-n4c(-c5noc(C)n5)cc5cc(F)ccc54)cc3)CC2)on1` [Example 47, 3-Methoxy-isoxazole-5-carboxylic acid (1-{4-[5-fluoro-2-(5-methyl-[1,2,4]oxadiazol-3-yl)-indol-1-yl]-benzylcarbamoyl}-cyclopropyl)-amide], the Ki in experiment [1] (setting [3]) was less than 20 nM. In addition, in experiment [2] (setting [4]), the IC50 was less than 20 nM.

With `Cc1nc(-c2c(Cl)c3ccccc3n2-c2ccc(CNC(=O)C3(NC(=O)c4ccco4)CC3)cc2)no1` [Example 145, Furan-2-carboxylic acid (1-{4-[3-chloro-2-(5-methyl-[1,2,4]oxadiazol-3-yl)-indol-1-yl]-benzylcarbamoyl}-cyclopropyl)-amide], the Ki in experiment [1] (setting [3]) fell in the range of 20 to 100 nM. In experiment [2] (setting [4]), the IC50 was in the range of 20 to 100 nM.

On to `Cn1nnc(-c2c(Cl)c3cc(F)ccc3n2-c2ccc(CNC(=O)C3(NC(=O)C(F)(F)F)CC3)c(F)c2)n1` [Example 19], for which the Ki in experiment [1] (setting [3]) was less than 20 nM. For the same molecule, the IC50 in experiment [2] (setting [4]) was less than 20 nM.

As for `Cc1nc(-c2c(Cl)c3cc(F)ccc3n2-c2ccc(CNC(=O)C3(NC(=O)C(F)(F)F)CC3)cc2)no1` [Example 189, 1-(2,2,2-Trifluoro-acetylamino)-cyclopropanecarboxylic acid 4-[3-chloro-5-fluoro-2-(5-methyl-[1,2,4]oxadiazol-3-yl)-indol-1-yl]-benzylamide], in experiment [1] (setting [3]), the Ki is less than 20 nM. Further, in experiment [2] (setting [4]), the IC50 was less than 20 nM.

As to `Cc1nc(-c2c(Cl)c3cc(F)ccc3n2-c2ccc(CNC(=O)C3(NC(=O)c4cccnc4Cl)CC3)cc2)no1` [Example 85, 2-Chloro-N-(1-{4-[3-chloro-5-fluoro-2-(5-methyl-[1,2,4]oxadiazol-3-yl)-indol-1-yl]-benzylcarbamoyl}-cyclopropyl)-nicotinamide], in experiment [1] (setting [3]), the Ki is less than 20 nM. For the same molecule, in experiment [2] (setting [4]), the IC50 was less than 20 nM.

For the molecule `Cc1nc(-c2c(Cl)c3ccccc3n2-c2ccc(CNC(=O)C3(NC(=O)c4ccnc(F)c4)CC3)cc2)no1` [Example 164, N-(1-{4-[3-Chloro-2-(5-methyl-[1,2,4]oxadiazol-3-yl)-indol-1-yl]-benzylcarbamoyl}-cyclopropyl)-2-fluoro-isonicotinamide], the Ki in experiment [1] (setting [3]) is less than 20 nM. Further, in experiment [2] (setting [4]), the IC50 is less than 20 nM.
